Results as given in PubChem BioAssay AID330 (DTP/NCI, 2004).
Values joined by “and” are separate entries in the source; they are usually repeats but may differ in a detail not shown here. Identical values can stand only once. Inconclusive results and toxic doses are left out.

System: P388 leukemia ip, CD2F1 mice, survival T/C
Assay: NCI In Vivo Anticancer Drug Screen. Data for tumor model P388 Leukemia (intraperitoneal) in CD2F1 (CDF1) mice
Settings: endpoint: median survival time, higher = longer survival
In short: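 Mice carrying the transplanted tumor received test compound or vehicle. Survival was recorded in each group, and the value is the treated-group measurement divided by that of the vehicle-treated control group.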

[1] = dose: 25.0 mg/kg/injection, schedule: Q01DX009 (ip), vehicle: other
[2] = dose: 50.0 mg/kg/injection, schedule: Q01DX005 (ip), vehicle: Klucel (hydroxypropylcellulose) (HPC)
[3] = dose: 100.0 mg/kg/injection, schedule: Q01DX005 (ip), vehicle: Klucel (hydroxypropylcellulose) (HPC)
[4] = dose: 25.0 mg/kg/injection, schedule: Q01DX005 (ip), vehicle: saline with Tween-80
[5] = dose: 25.0 mg/kg/injection, schedule: Q01DX005 (ip), vehicle: saline
[6] = dose: 50.0 mg/kg/injection, schedule: Q01DX005 (ip), vehicle: saline with Tween-80
[7] = dose: 50.0 mg/kg/injection, schedule: Q01DX005 (ip), vehicle: saline
[8] = dose: 100.0 mg/kg/injection, schedule: Q01DX005 (ip), vehicle: saline with Tween-80
[9] = dose: 200.0 mg/kg/injection, schedule: Q01DX005 (ip), vehicle: saline with Tween-80
[10] = dose: 12.5 mg/kg/injection, schedule: Q01DX009 (ip), vehicle: saline with Tween-80
[11] = dose: 100.0 mg/kg/injection, schedule: Q04DX003 (ip), vehicle: saline with Tween-80
[12] = dose: 200.0 mg/kg/injection, schedule: Q01DX009 (ip), vehicle: saline with Tween-80
[13] = dose: 200.0 mg/kg/injection, schedule: Q04DX003 (ip), vehicle: saline with Tween-80
[14] = dose: 400.0 mg/kg/injection, schedule: Q04DX003 (ip), vehicle: saline with Tween-80
[15] = dose: 200.0 mg/kg/injection, schedule: Q01DX005 (ip), vehicle: Klucel (hydroxypropylcellulose) (HPC)

CC(C)C[NH-].CC(C)C[NH-].O.O.[Cl][Pt+2][Cl]
T/C (dose: 11.0 mg/kg/injection, schedule: Q01DX009 (ip), vehicle: saline with Tween-80): 167 % of control
T/C (dose: 12.5 mg/kg/injection, schedule: Q01DX009 (ip), vehicle: other): 181 % of control
T/C (dose: 16.5 mg/kg/injection, schedule: Q01DX009 (ip), vehicle: saline with Tween-80): 180 % of control
T/C [1]: 200 % of control
T/C (dose: 25.0 mg/kg/injection, schedule: Q01DX009 (ip), vehicle: saline with Tween-80): 218 % of control

Cc1c(N=Nc2cccc(Cl)c2Cl)c(-c2ccccc2)nn1C(N)=S
T/C (dose: 25.0 mg/kg/injection, schedule: Q01DX005 (ip), vehicle: Klucel (hydroxypropylcellulose) (HPC)): 94 % of control
T/C [2]: 99 % of control
T/C [3]: 96 % of control

CC12CCC(C=C1N1CCOCC1)C(C)(C)O2 (stereo not drawn)
T/C [4]: 97 % of control
T/C [5]: 100 % of control
T/C [6]: 103 % of control
T/C [7]: 102 % of control
T/C [8]: 94 % of control
T/C (dose: 100.0 mg/kg/injection, schedule: Q01DX005 (ip), vehicle: saline): 100 % of control
T/C [9]: 94 % of control
T/C (dose: 200.0 mg/kg/injection, schedule: Q01DX005 (ip), vehicle: saline): 99 % of control

C/C(=N\NC(=S)N(C)C1CCCCC1)c1ccc2ccccc2n1
T/C (dose: 6.25 mg/kg/injection, schedule: Q01DX005 (ip), vehicle: saline with Tween-80): 103 % of control and 114 % of control
T/C (dose: 12.5 mg/kg/injection, schedule: Q01DX005 (ip), vehicle: saline with Tween-80): 111 % of control and 115 % of control
T/C [4]: 150 % of control

CCCCCN(CCCCC)CCCNc1c2c(nc3ccc(Cl)cc13)CCCC2
T/C (dose: 12.5 mg/kg/injection, schedule: Q01DX005 (ip), vehicle: saline): 95 % of control
T/C [5]: 104 % of control
T/C [7]: 104 % of control and 107 % of control

COC(=O)/C=C\C1(CCC(=O)OC)N=C(c2ccccc2)OC1=O (stereo not drawn)
T/C [6]: 101 % of control
T/C [8]: 92 % of control
T/C [9]: 96 % of control

C=C(Br)C(=NC(C)(C)C)Nc1cccc(Cl)c1
T/C [2]: 102 % of control
T/C [3]: 107 % of control

COc1cc(NS(C)(=O)=O)ccc1Nc1c2ccc([N+](=O)[O-])cc2nc2c(C)c(C)ccc12
T/C (dose: 0.04 mg/kg/injection, schedule: Q01DX009 (ip), vehicle: saline with Tween-80): 120 % of control
T/C (dose: 0.07 mg/kg/injection, schedule: Q01DX009 (ip), vehicle: saline with Tween-80): 120 % of control
T/C (dose: 1.13 mg/kg/injection, schedule: Q01DX009 (ip), vehicle: saline with Tween-80): 157 % of control
T/C (dose: 6.25 mg/kg/injection, schedule: Q01DX009 (ip), vehicle: saline with Tween-80): 254 % of control
T/C (dose: 8.8 mg/kg/injection, schedule: Q04DX003 (ip), vehicle: saline with Tween-80): 218 % of control
T/C [10]: 291 % of control
T/C (dose: 13.2 mg/kg/injection, schedule: Q04DX003 (ip), vehicle: saline with Tween-80): 209 % of control
T/C (dose: 20.0 mg/kg/injection, schedule: Q04DX003 (ip), vehicle: saline with Tween-80): 231 % of control
T/C (dose: 30.0 mg/kg/injection, schedule: Q04DX003 (ip), vehicle: saline with Tween-80): 263 % of control

COc1ccc(N=Nc2c(C)nn(C(=S)SC)c2C)cc1
T/C (dose: 100.0 mg/kg/injection, schedule: Q04DX002 (ip), vehicle: saline with Tween-80): 100 % of control
T/C (dose: 200.0 mg/kg/injection, schedule: Q04DX002 (ip), vehicle: saline with Tween-80): 105 % of control
T/C (dose: 400.0 mg/kg/injection, schedule: Q04DX002 (ip), vehicle: saline with Tween-80): 109 % of control

c1cc2c3c(c1)c1cc4c(cc1c[n+]3CC2)OCO4
T/C [1]: 153 % of control
T/C (dose: 25.0 mg/kg/injection, schedule: Q01DX009 (ip), vehicle: water): 91 % of control

COc1ccc(C2=NNC(=O)CC2)cc1OC
T/C (dose: 12.5 mg/kg/injection, schedule: Q04DX003 (ip), vehicle: saline): 99 % of control
T/C (dose: 25.0 mg/kg/injection, schedule: Q04DX003 (ip), vehicle: saline): 101 % of control
T/C (dose: 50.0 mg/kg/injection, schedule: Q04DX003 (ip), vehicle: saline): 101 % of control

C[C@H]1C[C@@H]2[C@H]([C@@H](O)C[C@@]3(C)[C@H]2CC[C@]3(O)C(=O)CF)[C@@]2(C)C=CC(=O)C=C12
T/C (dose: 10.0 mg/kg/injection, schedule: Q01DX009 (ip), vehicle: saline with Tween-80): 104 % of control
T/C [11]: 100 % of control
T/C [12]: 95 % of control
T/C [13]: 100 % of control
T/C (dose: 400.0 mg/kg/injection, schedule: Q01DX009 (ip), vehicle: saline with Tween-80): 86 % of control
T/C [14]: 100 % of control

CSc1nccc(=O)n1-c1ccccc1C
T/C (dose: 100.0 mg/kg/injection, schedule: Q04DX002 (ip), vehicle: Klucel (hydroxypropylcellulose) (HPC)): 100 % of control
T/C (dose: 200.0 mg/kg/injection, schedule: Q04DX002 (ip), vehicle: Klucel (hydroxypropylcellulose) (HPC)): 102 % of control

Clc1cccc(Cl)c1C(Nc1nccs1)Nc1nccs1
T/C [2]: 100 % of control
T/C [3]: 103 % of control
T/C [15]: 114 % of control

Clc1ccc2nc(CI)c(CI)nc2c1
T/C (dose: 5.5 mg/kg/injection, schedule: Q01DX009 (ip), vehicle: saline with Tween-80): 104 % of control
T/C (dose: 8.3 mg/kg/injection, schedule: Q01DX009 (ip), vehicle: saline with Tween-80): 95 % of control
T/C [10]: 100 % of control
T/C (dose: 18.7 mg/kg/injection, schedule: Q01DX009 (ip), vehicle: saline with Tween-80): 118 % of control
T/C (dose: 25.0 mg/kg/injection, schedule: Q04DX003 (ip), vehicle: saline with Tween-80): 118 % of control
T/C (dose: 50.0 mg/kg/injection, schedule: Q04DX003 (ip), vehicle: saline with Tween-80): 118 % of control
T/C [11]: 122 % of control

CCN(CC)C(=O)c1cc2c(=O)c3c(ccc4ccccc43)oc2n(C)c1=O
T/C [6]: 98 % of control
T/C [8]: 90 % of control
T/C [9]: 90 % of control

COc1cc2ccc1-c1cc(ccc1O)CC1c3cc4c(cc3CCN1C)Oc1c(OC)cc3c(c1O4)C(C2)N(C)CC3 (stereo not drawn)
T/C (dose: 7.5 mg/kg/injection, schedule: Q01DX005 (ip), vehicle: Klucel (hydroxypropylcellulose) (HPC)): 99 % of control
T/C (dose: 15.0 mg/kg/injection, schedule: Q01DX005 (ip), vehicle: Klucel (hydroxypropylcellulose) (HPC)): 99 % of control
T/C (dose: 30.0 mg/kg/injection, schedule: Q01DX005 (ip), vehicle: Klucel (hydroxypropylcellulose) (HPC)): 92 % of control
T/C (dose: 60.0 mg/kg/injection, schedule: Q01DX005 (ip), vehicle: Klucel (hydroxypropylcellulose) (HPC)): 104 % of control

CCC(=O)NC(C)C(=O)O (stereo not drawn)
T/C (dose: 6.25 mg/kg/injection, schedule: Q01DX009 (ip), vehicle: saline): 100 % of control
T/C (dose: 12.5 mg/kg/injection, schedule: Q01DX009 (ip), vehicle: saline): 88 % of control
T/C (dose: 25.0 mg/kg/injection, schedule: Q01DX009 (ip), vehicle: saline): 88 % of control
T/C (dose: 100.0 mg/kg/injection, schedule: Q01DX009 (ip), vehicle: saline): 94 % of control
T/C (dose: 200.0 mg/kg/injection, schedule: Q01DX009 (ip), vehicle: saline): 97 % of control

COc1cccc(C2OC3=C(Nc4ccc([N+](=O)[O-])cc4N3)C2=O)c1 (stereo not drawn)
T/C [2]: 102 % of control
T/C [3]: 101 % of control
T/C [15]: 96 % of control

BrC=C(Br)Br
T/C [6]: 104 % of control
T/C [8]: 100 % of control
T/C [9]: 95 % of control

CO[C@H]1/C=C/O[C@@]2(C)Oc3c(C)c(O)c4c(O)c(c(/C=N/N5CCNCC5)c(O)c4c3C2=O)NC(=O)/C(C)=C\C=C\[C@H](C)[C@H](O)[C@@H](C)[C@@H](O)[C@@H](C)C(OC(C)=O)[C@@H]1C (stereo partly drawn)
T/C (dose: 100.0 mg/kg/injection, schedule: Q01DX009 (ip), vehicle: saline with Tween-80): 95 % of control
T/C [11]: 91 % of control
T/C [12]: 104 % of control
T/C [13]: 91 % of control
T/C [14]: 100 % of control

Nc1c(S(=O)(=O)O)cc(Nc2ccc(S(=O)(=O)O)c(Nc3nc(Cl)nc(Cl)n3)c2)c2c1C(=O)c1ccccc1C2=O
T/C (dose: 60.0 mg/kg/injection, schedule: Q01DX005 (ip), vehicle: saline): 118 % of control
T/C (dose: 120.0 mg/kg/injection, schedule: Q01DX005 (ip), vehicle: saline): 110 % of control
T/C (dose: 240.0 mg/kg/injection, schedule: Q01DX005 (ip), vehicle: saline): 110 % of control
